Assays:
Recombinant ROCK1 = Recombinant ROCK1 (Homo sapiens (Human), UniProt Q13464); assay: Lance Ultra Kinase Assay, ROCK1 inhibition; format: biochemical; details: ATP at Km, 30 min pre-incubation, 1 h reaction
Recombinant ROCK2 = Recombinant ROCK2 (Homo sapiens (Human), UniProt O75116); assay: Lance Ultra Kinase Assay, ROCK2 inhibition; format: biochemical; details: ATP at Km, 30 min pre-incubation, 1 h reaction
Recombinant ROCK2, sequence (O75116 whole entry): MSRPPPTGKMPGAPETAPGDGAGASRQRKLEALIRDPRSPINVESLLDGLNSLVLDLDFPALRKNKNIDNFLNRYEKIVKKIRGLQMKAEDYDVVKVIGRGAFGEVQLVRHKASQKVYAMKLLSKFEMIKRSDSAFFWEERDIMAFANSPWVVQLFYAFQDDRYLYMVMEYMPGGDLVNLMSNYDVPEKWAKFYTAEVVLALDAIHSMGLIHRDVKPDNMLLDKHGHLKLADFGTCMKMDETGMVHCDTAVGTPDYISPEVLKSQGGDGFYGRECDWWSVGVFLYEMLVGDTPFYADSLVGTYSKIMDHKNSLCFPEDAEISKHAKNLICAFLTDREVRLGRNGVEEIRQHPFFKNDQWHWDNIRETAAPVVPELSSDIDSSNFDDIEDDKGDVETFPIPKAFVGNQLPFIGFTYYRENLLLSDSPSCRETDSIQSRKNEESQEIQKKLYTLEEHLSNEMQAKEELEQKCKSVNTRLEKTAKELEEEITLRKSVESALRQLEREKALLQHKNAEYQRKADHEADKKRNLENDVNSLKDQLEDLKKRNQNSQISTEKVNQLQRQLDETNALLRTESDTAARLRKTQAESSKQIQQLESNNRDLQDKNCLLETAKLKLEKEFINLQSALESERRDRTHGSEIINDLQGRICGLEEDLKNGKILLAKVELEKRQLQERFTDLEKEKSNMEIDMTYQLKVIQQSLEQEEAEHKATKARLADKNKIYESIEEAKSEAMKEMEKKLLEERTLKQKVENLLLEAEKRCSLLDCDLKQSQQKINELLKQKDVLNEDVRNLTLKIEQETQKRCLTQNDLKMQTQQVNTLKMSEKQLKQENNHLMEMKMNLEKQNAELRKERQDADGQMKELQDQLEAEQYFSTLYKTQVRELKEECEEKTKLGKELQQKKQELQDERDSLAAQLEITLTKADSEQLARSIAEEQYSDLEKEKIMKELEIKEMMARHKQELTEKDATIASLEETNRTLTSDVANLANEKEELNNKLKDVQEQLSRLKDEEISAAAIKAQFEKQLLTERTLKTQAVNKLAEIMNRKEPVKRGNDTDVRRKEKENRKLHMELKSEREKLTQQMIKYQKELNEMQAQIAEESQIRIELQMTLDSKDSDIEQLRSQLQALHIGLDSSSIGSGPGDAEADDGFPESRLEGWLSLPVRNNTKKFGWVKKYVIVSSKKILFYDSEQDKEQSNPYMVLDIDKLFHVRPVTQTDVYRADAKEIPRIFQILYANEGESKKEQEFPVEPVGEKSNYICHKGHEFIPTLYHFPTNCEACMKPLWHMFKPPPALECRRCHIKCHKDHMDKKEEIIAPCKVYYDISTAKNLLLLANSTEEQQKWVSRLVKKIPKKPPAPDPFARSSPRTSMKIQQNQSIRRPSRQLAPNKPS
Procedure: The inhibition potency of compounds against these enzymes was assessed using Lance Ultra Kinase Assay. In brief, recombinant kinases were pre-incubated in the presence or absence of compound at room temperature for 30 minutes. The reaction was initiated by the addition of the ATP (Km) and substrate peptide which could be phosphorylated by kinases in the reaction. After 1 h incubation, the reaction was stopped by the addition of the detection reagent mix containing EDTA. The fluorescence was measured at 615 nm and 665 nm, respectively with excitation wavelength at 320 nm. The calculated signal ratio of 665 nm/615 nm is proportional to the kinase activity.

Recombinant ROCK1, sequence (Q13464 whole entry): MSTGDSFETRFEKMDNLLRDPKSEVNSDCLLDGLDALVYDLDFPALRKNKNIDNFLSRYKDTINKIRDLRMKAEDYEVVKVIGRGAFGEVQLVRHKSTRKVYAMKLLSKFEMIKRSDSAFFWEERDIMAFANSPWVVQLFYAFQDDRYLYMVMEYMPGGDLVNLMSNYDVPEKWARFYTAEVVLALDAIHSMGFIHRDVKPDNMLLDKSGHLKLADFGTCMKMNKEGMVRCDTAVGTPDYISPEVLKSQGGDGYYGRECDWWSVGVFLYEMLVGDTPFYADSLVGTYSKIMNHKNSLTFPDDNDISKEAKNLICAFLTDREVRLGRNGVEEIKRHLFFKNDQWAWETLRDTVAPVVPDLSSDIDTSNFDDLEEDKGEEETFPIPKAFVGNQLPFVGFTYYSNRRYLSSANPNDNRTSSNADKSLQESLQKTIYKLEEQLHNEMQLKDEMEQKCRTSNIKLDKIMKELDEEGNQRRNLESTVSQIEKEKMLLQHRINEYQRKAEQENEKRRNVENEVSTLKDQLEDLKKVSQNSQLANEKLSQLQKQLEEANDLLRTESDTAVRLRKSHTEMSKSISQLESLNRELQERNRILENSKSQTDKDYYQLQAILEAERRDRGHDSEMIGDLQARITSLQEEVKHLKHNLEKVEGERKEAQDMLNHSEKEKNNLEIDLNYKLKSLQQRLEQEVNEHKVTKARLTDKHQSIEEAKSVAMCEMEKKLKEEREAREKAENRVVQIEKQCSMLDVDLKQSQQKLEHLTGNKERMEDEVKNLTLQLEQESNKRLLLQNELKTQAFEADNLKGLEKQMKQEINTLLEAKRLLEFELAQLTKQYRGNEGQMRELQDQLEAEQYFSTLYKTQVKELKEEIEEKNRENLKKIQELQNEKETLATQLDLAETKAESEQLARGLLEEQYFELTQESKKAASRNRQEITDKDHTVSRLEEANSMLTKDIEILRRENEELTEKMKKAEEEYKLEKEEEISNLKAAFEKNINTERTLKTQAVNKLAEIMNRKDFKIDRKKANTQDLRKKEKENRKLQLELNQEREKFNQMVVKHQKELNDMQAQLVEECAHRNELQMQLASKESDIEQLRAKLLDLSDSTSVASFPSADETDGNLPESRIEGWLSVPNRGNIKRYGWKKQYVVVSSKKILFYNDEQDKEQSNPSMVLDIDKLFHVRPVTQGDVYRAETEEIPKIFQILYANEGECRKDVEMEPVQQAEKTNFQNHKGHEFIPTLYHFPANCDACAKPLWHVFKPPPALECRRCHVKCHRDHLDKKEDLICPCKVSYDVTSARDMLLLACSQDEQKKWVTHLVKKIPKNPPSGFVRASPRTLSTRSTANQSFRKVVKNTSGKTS

| Structure (SMILES) | IC50 (Recombinant ROCK1) | IC50 (Recombinant ROCK2) |
| --- | --- | --- |
| COc1cccc([C@H](C(=O)Nc2cccc3c(-c4cn[nH]c4)c[nH]c23)C2CCN(C)CC2)c1 (single isomer, unassigned) [Example 30, N-(3-(1H-pyrazol-4-yl)-1H-indol-7-yl)-2-(3-methoxyphenyl)-2-(1-methylpiperidin-4-yl) acetamide] | 3.2 nM | 1.1 nM |
| NCC(C(=O)Nc1cccc2c(-c3cn[nH]c3)c[nH]c12)c1cccnc1 (single isomer, unassigned) [Example 33, N-(3-(1H-pyrazol-4-yl)-1H-indol-7-yl)-3-amino-2-(pyridin-3-yl)propanamide] | 97 nM | 50 nM |
| COc1cccc(C(CN2CCN(C)CC2)C(=O)Nc2cccc3c(-c4cn[nH]c4)c[nH]c23)c1 (single isomer, unassigned) [Example 35, N-(3-(1H-pyrazol-4-yl)-1H-indol-7-yl)-2-(3-methoxyphenyl)-3-(4-methylpiperazin-1-yl)propanamide] | 1.8 nM | 0.76 nM |
| COc1cccc(C(CN2CCN(C)CC2)C(=O)Nc2cccc3c(-c4cn[nH]c4)c[nH]c23)c1 (single isomer, unassigned) [Example 36, N-(3-(1H-pyrazol-4-yl)-1H-indol-7-yl)-2-(3-methoxyphenyl)-3-(4-methylpiperazin-1-yl)propanamide] | 321 nM | 174 nM |
| CN1CCN(CC(C(=O)Nc2cccc3c(-c4cn[nH]c4)c[nH]c23)c2ccccc2)CC1 (single isomer, unassigned) [Example 39, N-(3-(1H-pyrazol-4-yl)-1H-indol-7-yl)-3-(4-methylpiperazin-1-yl)-2-phenylpropanamide] | 175 nM | 116 nM |
| CN1CCC(C(C(=O)Nc2cccc3c(-c4cn[nH]c4)c[nH]c23)c2ccccc2)CC1 (single isomer, unassigned) [Example 44, N-(3-(1H-pyrazol-4-yl)-1H-indol-7-yl)-2-(1-methylpiperidin-4-yl)-2-phenylacetamide] | 111 nM | 70 nM |
| CN1CCN(C(C(=O)Nc2cccc3c(-c4cn[nH]c4)c[nH]c23)c2ccccc2)CC1 (single isomer, unassigned) [Example 47, N-(3-(1H-pyrazol-4-yl)-1H-indol-7-yl)-2-(4-methylpiperazin-1-yl)-2-phenylacetamide] | 201 nM | 121 nM |
| CN1CCN(C(C(=O)Nc2cccc3c(-c4cn[nH]c4)c[nH]c23)c2ccccc2)CC1 (single isomer, unassigned) [Example 48, N-(3-(1H-pyrazol-4-yl)-1H-indol-7-yl)-2-(4-methylpiperazin-1-yl)-2-phenylacetamide] | 1.6 nM | 0.84 nM |
| CNC(=O)OCc1cccc(C(CN)C(=O)Nc2cccc3c(-c4cn[nH]c4)c[nH]c23)c1 (single isomer, unassigned) [Example 50, 3-(1-((3-(1H-pyrazol-4-yl)-1H-indol-7-yl)amino)-3-amino-1-oxopropan-2-yl)benzyl methylcarbamate] | 0.32 nM | 0.22 nM |
| CNC(=O)OCc1cccc(C(CN)C(=O)Nc2cccc3c(-c4cn[nH]c4)c[nH]c23)c1 (single isomer, unassigned) [Example 51, 3-(1-((3-(1H-pyrazol-4-yl)-1H-indol-7-yl)amino)-3-amino-1-oxopropan-2-yl)benzyl methylcarbamate] | 33 nM | 22 nM |

Second part, the compound after the results:

| IC50 (Recombinant ROCK1) | IC50 (Recombinant ROCK2) | Structure (SMILES) |
| --- | --- | --- |
| 136 nM | 48 nM | N#Cc1ccc(C(CN)C(=O)Nc2cccc3c(-c4cn[nH]c4)c[nH]c23)cc1 (single isomer, unassigned) [Example 58, N-(3-(1H-pyrazol-4-yl)-1H-indol-7-yl)-3-amino-2-(4-cyanophenyl)propanamide] |
| 26 nM | 8.9 nM | NCC(C(=O)Nc1cccc2c(-c3cn[nH]c3)c[nH]c12)c1ccc(CO)nc1 (single isomer, unassigned) [Example 61, N-(3-(1H-pyrazol-4-yl)-1H-indol-7-yl)-3-amino-2-(6-(hydroxymethyl)pyridin-3-yl)propanamide] |
| 68 nM | 31 nM | Cc1cncc(C(CN)C(=O)Nc2cccc3c(-c4cn[nH]c4)c[nH]c23)c1 (single isomer, unassigned) [Example 62, N-(3-(1H-pyrazol-4-yl)-1H-indol-7-yl)-3-amino-2-(5-methylpyridin-3-yl)propanamide] |
| 0.43 nM | 0.24 nM | Cc1cncc(C(CN)C(=O)Nc2cccc3c(-c4cn[nH]c4)c[nH]c23)c1 (single isomer, unassigned) [Example 63, N-(3-(1H-pyrazol-4-yl)-1H-indol-7-yl)-3-amino-2-(5-methylpyridin-3-yl)propanamide] |
| 0.37 nM | 0.19 nM | NCC(C(=O)Nc1cccc2c(-c3cn[nH]c3)c[nH]c12)c1cccc(O)c1 (single isomer, unassigned) [Example 64, N-(3-(1H-pyrazol-4-yl)-1H-indol-7-yl)-3-amino-2-(3-hydroxyphenyl)propanamide] |
| 4.4 nM | 2.5 nM | NCC(C(=O)Nc1cccc2c(-c3cn[nH]c3)c[nH]c12)c1cccc(O)c1 (single isomer, unassigned) [Example 65, N-(3-(1H-pyrazol-4-yl)-1H-indol-7-yl)-3-amino-2-(3-hydroxyphenyl)propanamide] |
| 604 nM | 310 nM | CN1CCN(CC(C(=O)Nc2cccc3c(-c4cn[nH]c4)c[nH]c23)c2cccnc2)CC1 (single isomer, unassigned) [Example 66, N-(3-(1H-pyrazol-4-yl)-1H-indol-7-yl)-3-(4-methylpiperazin-1-yl)-2-(pyridin-3-yl)propanamide] |
| 2.6 nM | 1.6 nM | CN1CCN(CC(C(=O)Nc2cccc3c(-c4cn[nH]c4)c[nH]c23)c2cccnc2)CC1 (single isomer, unassigned) [Example 67, N-(3-(1H-pyrazol-4-yl)-1H-indol-7-yl)-3-(4-methylpiperazin-1-yl)-2-(pyridin-3-yl)propanamide] |
| 4 nM | 1.5 nM | N#Cc1cccc([C@@H](N)C(=O)Nc2cccc3c(-c4cn[nH]c4)c[nH]c23)c1 (single isomer, unassigned) [Example 68, N-(3-(1H-pyrazol-4-yl)-1H-indol-7-yl)-2-amino-2-(3-cyanophenyl) acetamide] |
| 21 nM | 9.2 nM | N#Cc1cccc([C@H](N)C(=O)Nc2cccc3c(-c4cn[nH]c4)c[nH]c23)c1 (single isomer, unassigned) [Example 69, N-(3-(1H-pyrazol-4-yl)-1H-indol-7-yl)-2-amino-2-(3-cyanophenyl) acetamide] |
| 6.6 nM | 3.3 nM | COc1cncc(C(CN2CCN(C)CC2)C(=O)Nc2cccc3c(-c4cn[nH]c4)c[nH]c23)c1 (single isomer, unassigned) [Example 110, N-(3-(1H-pyrazol-4-yl)-1H-indol-7-yl)-2-(5-methoxypyridin-3-yl)-3-(4-methylpiperazin-1-yl)propanamide] |
| 297 nM | 167 nM | COc1cncc(C(CN2CCN(C)CC2)C(=O)Nc2cccc3c(-c4cn[nH]c4)c[nH]c23)c1 (single isomer, unassigned) [Example 111, N-(3-(1H-pyrazol-4-yl)-1H-indol-7-yl)-2-(5-methoxypyridin-3-yl)-3-(4-methylpiperazin-1-yl)propanamide] |

From patent US20250346616A1 (DIZAL (JIANGSU) PHARMACEUTICAL CO., LTD., priority 2022, published 2025)
